Test systems include A549 NSCLC; ACHN renal; HL-60(TB) leukemia; HOP-92 NSCLC; M14 melanoma; MDA-MB-231 breast; NCI-H522 lung; RXF 393 renal; UACC-257 melanoma; UACC-62 melanoma.
Common to all, as to experiment: DTP human tumour cell line panel, 48 h

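Protocol summary: plate cells (96-well), add compound at 5 concentrations, incubate 48 h, interpolate endpoints linearly. Here, GI50 denotes the concentration required for 50% inhibition of growth. The concentration for full growth arrest is given as TGI.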

For orientation: TGI means the concentration giving total growth inhibition. Lower therefore signals greater sensitivity of the cells. Take `CC(C)Oc1cccc(N2C(CCc3c[nH]c4ccc(Br)cc34)=NS(=O)(=O)c3cnccc32)c1`: the TGI in the assay with A549 NSCLC, with ACHN renal, in the assay on HL-60(TB) leukemia, with HOP-92 NSCLC, in the assay on M14 melanoma and in the assay with MDA-MB-231 breast was over 100 µM throughout. Moreover, the TGI in the assay with NCI-H522 lung, in the assay on RXF 393 renal, with UACC-257 melanoma and with UACC-62 melanoma was over 100 µM in each case.
In the case of `CC(=O)CCC1(C(=O)OCC(C)C)CCCC1=O` (centres undefined), the TGI with A549 NSCLC, in the assay on ACHN renal, in the assay with HL-60(TB) leukemia, in the assay with HOP-92 NSCLC, in the assay with M14 melanoma and in the assay on MDA-MB-231 breast was over 100 µM in each case. Moreover, the concentration for total growth inhibition (TGI) in the assay with NCI-H522 lung, in the assay on RXF 393 renal, with UACC-257 melanoma and with UACC-62 melanoma was over 100 µM in each case.
For `Cc1ccc(S(=O)(=O)OCCN(CCOS(=O)(=O)c2ccc(C)cc2)c2ccc(C=O)cc2)cc1`, the TGI in the assay with A549 NSCLC is over 100 µM; in the assay on ACHN renal it was over 100 µM; with HL-60(TB) leukemia it was over 100 µM; in the assay with HOP-92 NSCLC, 75.3 µM; in the assay on M14 melanoma, over 100 µM; with MDA-MB-231 breast, over 100 µM. The TGI with NCI-H522 lung stood at 34.1 µM; with RXF 393 renal it was 33.2 µM; with UACC-257 melanoma, 61 µM; in the assay on UACC-62 melanoma it was 39.5 µM.
For the molecule `COc1ccc2oc(=O)c(-c3cc4c(c(C)n3)c(=O)oc3ccc(OC)cc34)cc2c1`, the TGI in the assay on A549 NSCLC is over 100 µM; in the assay on ACHN renal, 86 µM; with HL-60(TB) leukemia, over 100 µM; in the assay with HOP-92 NSCLC it was over 100 µM; in the assay with M14 melanoma it was over 100 µM; with MDA-MB-231 breast it was over 100 µM. The TGI with NCI-H522 lung, with RXF 393 renal, in the assay on UACC-257 melanoma and in the assay on UACC-62 melanoma was over 100 µM throughout.
For `COc1cccc2c(=O)oc(-c3ccccc3C)nc12`, the TGI in the assay with A549 NSCLC, in the assay on ACHN renal, with HL-60(TB) leukemia, with HOP-92 NSCLC, with MDA-MB-231 breast and with NCI-H522 lung was over 100 µM each time. Besides, the TGI with RXF 393 renal and with UACC-62 melanoma was over 100 µM in each case.
On to `COc1cc2c(cc1O)NC(=O)[C@@H]1C[C@@H](O)CN1C2=O`, for which the TGI with A549 NSCLC, with ACHN renal, with HOP-92 NSCLC, with M14 melanoma, with MDA-MB-231 breast and in the assay with NCI-H522 lung was over 100 µM throughout. In addition, the TGI in the assay on RXF 393 renal, in the assay with UACC-257 melanoma and in the assay with UACC-62 melanoma was over 100 µM throughout.
For the molecule `O=c1c2ccc(Cl)cc2oc2c(CSc3ccccc3)cccc12`, the TGI is over 100 µM in the assay on A549 NSCLC; over 65.1 µM with ACHN renal; over 74.9 µM in the assay on HOP-92 NSCLC; over 100 µM in the assay on M14 melanoma; over 100 µM in the assay on MDA-MB-231 breast; over 53.1 µM in the assay with NCI-H522 lung. Also, the TGI is over 100 µM with RXF 393 renal, over 100 µM in the assay on UACC-257 melanoma and over 83.3 µM in the assay on UACC-62 melanoma.
`CCCCCCCCCCCCOCC(COP(=O)(O)OCCN=[N+]=[N-])OC(=O)CCCCCCCCCCC` (centres undefined): the TGI in the assay on A549 NSCLC, with ACHN renal, in the assay on HOP-92 NSCLC, in the assay with M14 melanoma, in the assay on MDA-MB-231 breast and with NCI-H522 lung was over 100 µM each time. For the same molecule, the concentration for total growth inhibition (TGI) with RXF 393 renal and with UACC-62 melanoma was over 100 µM in each case.
On to `OCCN1CCN(c2nc(N3CCCC3)c3nc(Cl)c(NCc4ccccc4)nc3n2)CC1`, for which the TGI in the assay with A549 NSCLC was 21.4 µM; in the assay with ACHN renal it was 20.7 µM; in the assay with HL-60(TB) leukemia it was 11.8 µM; in the assay on HOP-92 NSCLC it was 16.8 µM; in the assay on M14 melanoma, 7.24 µM; in the assay on MDA-MB-231 breast, 25 µM. Further, the concentration for total growth inhibition (TGI) in the assay with NCI-H522 lung turned out to be 18.7 µM; with RXF 393 renal, 3.68 µM; with UACC-257 melanoma, 9.79 µM; with UACC-62 melanoma, 9.26 µM.
Usually GI50 stands for the concentration at which growth is held to half of that of the control. As for `O=C(Nc1ccc(-n2cc(-c3ccncc3)c(-c3ccc(O)c(Cl)c3)n2)cc1)Nc1cc(C(F)(F)F)cc(C(F)(F)F)c1`, the GI50 in the assay with A549 NSCLC was 4.06 µM; in the assay with ACHN renal, 3.24 µM; in the assay on HL-60(TB) leukemia, 2.98 µM; in the assay with HOP-92 NSCLC, 1.64 µM; in the assay with M14 melanoma it was 3.6 µM; with MDA-MB-231 breast it was 3.61 µM. Further, the GI50 in the assay with NCI-H522 lung was 3.79 µM; in the assay on RXF 393 renal, 2.54 µM; in the assay on UACC-257 melanoma it was 5.81 µM; in the assay on UACC-62 melanoma, 3.02 µM. Further, the TGI in the assay with A549 NSCLC amounted to 15.5 µM; in the assay with ACHN renal it was 11.7 µM; in the assay on HL-60(TB) leukemia it was 8.09 µM; in the assay with HOP-92 NSCLC, 5.74 µM; in the assay on M14 melanoma, 13.6 µM; in the assay with MDA-MB-231 breast it was 14.6 µM. Moreover, the TGI with NCI-H522 lung was 15 µM; with RXF 393 renal it was 6.9 µM; in the assay with UACC-257 melanoma, 20.5 µM; in the assay on UACC-62 melanoma, 10.6 µM.
As to `Clc1[nH]nc2ccccc12`, the TGI with A549 NSCLC, with ACHN renal, in the assay with HL-60(TB) leukemia, with HOP-92 NSCLC, in the assay on M14 melanoma and in the assay with MDA-MB-231 breast was over 100 µM each time. For the same molecule, the TGI in the assay on NCI-H522 lung, in the assay on RXF 393 renal, in the assay on UACC-257 melanoma and with UACC-62 melanoma was over 100 µM each time.
With `COc1cc2c(cc1O)C(Cc1ccc(OCc3ccccc3)c(OCc3ccccc3)c1)N(C(=O)NCCc1ccccc1)CC2` (centres undefined), the TGI in the assay on A549 NSCLC, with ACHN renal, in the assay on HL-60(TB) leukemia, in the assay with HOP-92 NSCLC, in the assay on M14 melanoma and with MDA-MB-231 breast was over 100 µM each time. Besides, the TGI in the assay with NCI-H522 lung was 72.9 µM; in the assay on RXF 393 renal, over 100 µM; in the assay on UACC-257 melanoma it was over 100 µM; in the assay with UACC-62 melanoma, over 100 µM.
On to `CC(=O)O[C@H]1CC[C@@H](OC(C)=O)[C@H]2[C@H](O)[C@H](O)[C@@H]1n1c(=O)n(-c3ccccc3)c(=O)n12`, for which the TGI in the assay with A549 NSCLC, in the assay with ACHN renal, in the assay with HL-60(TB) leukemia, in the assay with HOP-92 NSCLC, in the assay on M14 melanoma and with MDA-MB-231 breast was over 100 µM each time. For the same molecule, the TGI in the assay with NCI-H522 lung, with RXF 393 renal, in the assay with UACC-257 melanoma and in the assay with UACC-62 melanoma was over 100 µM in each case.

These data come from PubChem BioAssay (NCI).
